# Assay results published in PubChem BioAssay (NCI).
#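 Method: 48-hour compound exposure of cells in 96-well plates, five concentrations, linear interpolation of endpoints. Abbreviation: GI50, concentration required for 50% inhibition of growth. Definition used: TGI = concentration required for complete inhibition of growth.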
# Experiments:
# Experiment in all cases: NCI tumour cell line growth inhibition, 48 h
# SNB-75 CNS = tested on: SNB-75 CNS
# MALME-3M melanoma = tested on: MALME-3M melanoma
# SN12C renal = tested on: SN12C renal
# EKVX NSCLC = tested on: EKVX NSCLC
# T-47D breast = tested on: T-47D breast
# SF-295 CNS = tested on: SF-295 CNS
# HT29 colon = tested on: HT29 colon
# SK-OV-3 ovarian = tested on: SK-OV-3 ovarian
# SNB-19 CNS = tested on: SNB-19 CNS
# 786-0 renal = tested on: 786-0 renal
Compound,TGI (SNB-75 CNS) [µM],TGI (MALME-3M melanoma) [µM],TGI (SN12C renal) [µM],TGI (EKVX NSCLC) [µM],TGI (T-47D breast) [µM],TGI (SF-295 CNS) [µM],TGI (HT29 colon) [µM],TGI (SK-OV-3 ovarian) [µM],TGI (SNB-19 CNS) [µM],TGI (786-0 renal) [µM],GI50 (SNB-75 CNS) [µM],GI50 (MALME-3M melanoma) [µM],GI50 (SN12C renal) [µM],GI50 (EKVX NSCLC) [µM],GI50 (T-47D breast) [µM],GI50 (HT29 colon) [µM],GI50 (SK-OV-3 ovarian) [µM],GI50 (SNB-19 CNS) [µM],GI50 (SF-295 CNS) [µM]
Nc1ccc(Cc2ccc(N)c(C(=O)O)c2)cc1C(=O)O,> 100,> 100,> 100,> 100,> 100,> 100,> 100,> 100,> 100,> 100,,,,,,,,,
CC12OC(C(=O)C13CCC3)C1C(=O)c3c(O)ccc(O)c3C(=O)C12 (centres undefined),20.1,3.88,0.0729,22.7,3.2,10.3,> 51.6,54.3,> 50.5,,4.99,1.8,0.0256,9.34,0.948,0.897,18.6,14.7,
CC(NC(=O)c1ccc(OP(=O)(OCc2ccc([N+](=O)[O-])o2)N(C)CCCCCl)cc1)c1ccc(OCC2CCCCC2)c(C(N)=O)c1 (centres undefined),25.3,10.7,6.15,> 100,> 20.1,> 32.4,7.85,> 100,> 100,> 37.2,,,,,,,,,
COc1cc(/C=C2\CC3C4CC[C@H]5C[C@@H](O)CC[C@]5(C)C4CC[C@]3(C)\C2=N\O)cc(OC)c1OC (some centres undefined),> 100,42.8,41.9,> 100,36.9,15.4,> 100,72.3,> 100,34.8,,,,,,,,,
COc1cc(S(=O)(=O)Nc2ccc(-c3csc(/N=C\c4cccc(Oc5ccccc5)c4)n3)cc2)ccc1Cl,80.1,> 100,96.7,81.4,34.4,> 100,> 100,,> 100,> 100,,,,,,,,,
O=C(NN1CCCCC1)c1cc2cc(CCl)ccc2oc1=O,34.9,24.8,38.7,27.4,48.7,42,33,42.6,65.2,32,,,,,,,,,
Nc1csc(-c2scc3c2OCCO3)c1N,,36,37.4,72.3,,38.3,52.6,,> 100,33.3,,,,,,,,,
C/C=C/C(O)P(=O)(OC)OC (centres undefined),1.49,1.17,1.79,1.51,1.55,1.39,1.11,2.51,1.53,0.36,,,,,,,,,
Cc1cc(=O)[nH]c(S(=O)(=O)NC(=O)Nc2cccc(Cl)c2)n1,> 100,> 100,> 100,> 100,> 100,> 100,> 100,> 100,> 100,> 100,,,,,,,,,
COc1cc2cc[n+](C)c(Cc3ccc(Oc4cc(Cc5c6cc(OC)c(OC)cc6cc[n+]5C)ccc4OC)cc3)c2cc1OC,> 100,> 100,> 100,> 100,> 100,> 100,> 100,> 100,> 100,> 100,,,,,,,,,
CN(CCCNC(=O)c1nn(-c2ccccc2)c2c1Cc1ccccc1-2)CCCNC(=O)c1nn(-c2ccccc2)c2c1Cc1ccccc1-2,,2.91,3.2,,3.6,,3.42,3.23,3.07,2.9,,,,,,,,,
Cc1c2ccccc2cc2cccc[n+]12,83.7,27.9,> 100,92.5,,> 100,> 100,,> 100,> 100,,,,,,,,,
c1ccc(C[N+]23C(CC[C@H]2c2ccccc2)CC[C@H]3c2ccccc2)cc1 (some centres undefined),75,> 100,> 100,> 100,> 100,> 100,> 100,> 100,> 100,> 100,,,,,,,,,
COc1ccc2c3c([nH]c2c1)[C@H](C=C(C)C)N1C(=O)[C@@H]2CCCN2C(=O)[C@@H]1C3,61,> 100,> 100,> 100,> 100,> 100,> 100,95.9,> 100,> 100,,,,,,,,,
CCCCSCCC(N)P(=O)(O)O (centres undefined),> 100,,> 100,,> 100,> 100,> 100,> 100,> 100,,,,,,,,,,
C[C@]12O[C@@]3(C)O[C@@]3(C)[C@]3(C)O[C@]3(C)[C@@]1(C)O2,74.6,> 100,> 100,> 100,> 100,> 100,> 100,> 100,> 100,> 100,,,,,,,,,
Fc1c(F)c(F)c(CSc2nc3ccccc3[nH]2)c(F)c1F,> 100,> 100,> 100,> 100,> 100,> 100,> 100,> 100,> 100,,,,,,,,,,
CC(CCCCNC(=O)OC(C)(C)C)NC(=O)NC(C)CCCCNC(=O)OC(C)(C)C (centres undefined),> 100,> 100,> 100,> 100,> 100,> 100,> 100,> 100,> 100,> 100,,,,,,,,,

Compound,TGI (SNB-75 CNS) [µM],TGI (MALME-3M melanoma) [µM],TGI (SN12C renal) [µM],TGI (EKVX NSCLC) [µM],TGI (T-47D breast) [µM],TGI (SF-295 CNS) [µM],TGI (HT29 colon) [µM],TGI (SK-OV-3 ovarian) [µM],TGI (SNB-19 CNS) [µM],TGI (786-0 renal) [µM],GI50 (SNB-75 CNS) [µM],GI50 (MALME-3M melanoma) [µM],GI50 (SN12C renal) [µM],GI50 (EKVX NSCLC) [µM],GI50 (T-47D breast) [µM],GI50 (HT29 colon) [µM],GI50 (SK-OV-3 ovarian) [µM],GI50 (SNB-19 CNS) [µM],GI50 (SF-295 CNS) [µM]
CCCC(=O)Nc1cc(/C=C/C(=O)N2CC(CCl)c3c2cc(OC(C)=O)c2[nH]cc(C)c32)n(C)c1 (centres undefined),< 2.5e-05,9.55e-05,0.00519,0.00665,0.0689,0.000311,> 0.25,0.0691,0.0436,,,,,,,,,,
COc1ccc(-n2nc(C(=O)c3ccccc3)c3nn4c(=O)cc(-c5ccccc5)nc4nc32)cc1,> 100,> 100,> 100,> 100,> 100,85.2,> 100,> 100,> 100,,37.9,34.5,41.7,53.5,32.4,32.2,74.2,69.1,28.9
C#C[C@]1(O)[C@@H](CO)O[C@@H](n2ccc(=O)[nH]c2=O)[C@@H]1O,,7.62,,> 100,1.9,> 45.2,> 100,> 100,> 62.1,,,,,,,,,,
COc1ccc(-n2nnc3c(C#N)c(C)c(-c4ccccc4)n3c2=O)cc1,> 29.2,> 100,> 63.7,> 26.1,> 100,> 27.5,> 100,> 22.4,> 21.6,8.24,,,,,,,,,
O=C1/C(=C/c2ccc([N+](=O)[O-])cc2)Sc2scc(-c3cccc([N+](=O)[O-])c3)[n+]21,25.6,3.22,17.3,25,24.3,29.3,9.35,30.6,31.5,4.96,,,,,,,,,
Cc1ccc([N+](=O)[O-])cc1S(=O)(=O)Nc1ccc(C2=NN(C(=O)c3ccccc3)C(c3ccccc3O)C2)cc1 (centres undefined),41.4,31.5,33,31,30.1,> 100,62.5,84.5,> 100,27.9,,,,,,,,,
Oc1ccc(Cl)cc1C1=Nn2c(COc3ccc4c(c3)CCCC4)nnc2SC1,,> 100,19.9,34.7,34.3,29.7,,42.4,50.5,,,,,,,,,,
C=C(CN(C)C)C(=O)c1ccccc1Cl,> 80.7,31.7,42.3,> 76.6,,> 100,34.4,> 100,> 100,34.3,,,,,,,,,
CC(C)(C)COS(=O)OCC(C)(C)C,> 100,> 100,> 100,> 100,> 100,> 100,> 100,> 100,> 100,> 100,,,,,,,,,
CN(CCc1ccccn1)c1ccc2c(c1)Cc1ccccc1-2,45.2,93.7,> 100,62,92.5,41.1,> 100,68.6,58,> 100,,,,,,,,,
OC1CCSc2ccccc21 (centres undefined),,> 100,> 100,> 100,,,> 100,> 100,> 100,,,,,,,,,,
CCOC(=O)c1cccc(N=Nc2ncc(/C=C/C(=O)OC)[nH]2)c1,92.4,70.3,48.5,> 100,89.7,63.2,> 100,> 100,> 100,> 100,,,,,,,,,
NC(N)=N/N=C/c1c(-c2cccs2)nc2n1CCS2,,,32.4,85.7,37.3,30.6,30.9,> 100,57.8,,,,12.5,27.7,17.5,17.2,> 100,22,14
CC(C)C(=O)CC(c1ccc(Br)cc1)N1N=C(C(C)C)CC1c1ccc(Br)cc1 (centres undefined),,> 100,> 100,> 100,,,> 100,> 100,> 100,,,,,,,,,,
CS(=O)(=O)Nc1cccc(-c2ccc3ncnc(Nc4cncc(Cl)c4)c3c2)c1,> 100,8.38,> 100,,6.36,,4.65,4.99,> 100,,2.77,2.34,2.63,,0.726,1.85,1.34,3.84,
O=S(C(c1ccccc1)=P(c1ccccc1)(c1ccccc1)c1ccccc1)c1ccc(Cl)cc1 (centres undefined),> 100,,,> 100,> 100,> 100,> 100,50.6,,> 100,,,,,,,,,
O=C1CNc2cc(N3CCCCC3)ccc2N1,> 100,> 100,> 100,50.9,> 100,> 100,24.4,> 100,> 100,,,,,,,,,,
CCOC(=O)/C=C/C1=C(Br)[C@@]2(C)CC[C@@H]3c4ccc(O)cc4CC[C@H]3[C@@H]2C1,,24.3,26.5,30.7,16.5,29.2,27.8,28.7,30.2,25.4,,,,,,,,,
